Assay results as given in ChEMBL document CHEMBL1122772, “Bis(3,5-diisopropylsalicylato)copper(II), a potent radioprotectant with superoxide dismutase mimetic activity” (J Med Chem, 1984).

Assays:
Format in all cases: functional, organism-based
Mus musculus [1] = species: Mus musculus; experiment: Concentration required for 50% inhibition of superoxide reduction of nitroblue tetrazolium.
Mus musculus [2] = species: Mus musculus; experiment: Rate of diffusion-controlled disproportionation of superoxide
Mus musculus [3] = species: Mus musculus; experiment: Percent reactivity in disproportionating diffusion controlled disproportionation of superoxide

| Substance | Concentration (Mus musculus [1]) [µM] | Rate (Mus musculus [2]) [M⁻¹ s⁻¹] | Reactivity (Mus musculus [3]) [%] |
| --- | --- | --- | --- |
| bis(2-Hydroxy-3,5-diisopropyl-benzoic acid)copper(II)(bis(3,5-diisopropylsalicylato)copper(II)) | 2.9 | 2e+09 | 0.7 |
| bis(2-Hydroxy-benzoic acid)copper(II) | 4.6 | 1.6e+09 | 0.65 |
